Test results as given in patent US20090312521A1 (priority 2004, published 2009).
Values after ≈ are worked out from the molar mass of the structure shown. Non-standard residues stand in square brackets, D forms with d. Residues, ends and D or L forms follow the SMILES beside them. βAla = NCCC(=O)O

Columns and labels:
Serratia marcescens = test: Additional antimicrobial test (MIC); type: cell-based; details: Gram −, NB, 22 ° C.
[1] = tested on: Erwinia carotovora atroseptica; test: Additional antimicrobial test (MIC); type: cell-based; details: Gram −, NB/BHI, 28/37 ° C.

SMILES: CC[C@H](C)[C@H](NC(=O)[C@@H]1CCCN1C(=O)[C@H](CCCNC(=N)N)NC(=O)[C@@H]1CCCN1C(=O)[C@H](Cc1c[nH]cn1)NC(=O)[C@H](CO)NC(=O)[C@@H](NC(=O)[C@@H]1CCCN1C(=O)[C@H](CCCNC(=N)N)NC(=O)[C@@H]1CCCN1C(=O)[C@@H](NC(=O)[C@H](Cc1ccc(O)cc1)NC(=O)[C@@H]1CCCN1C(=O)[C@H](CCCNC(=N)N)NC(=O)[C@@H]1CCCN1C(=O)[C@H](CCCCN)NC(=O)CN)[C@@H](C)O)[C@@H](C)O)C(=O)N[C@@H](CCCNC(=N)N)C(=O)N[C@H](C(=O)O)C(C)C [Peptide 4, GKPRP YTPRP TSHPR PIRV] (H-GKPRPYTPRPTSHPRPIRV-OH; N-terminus assumed)
- MIC (Serratia marcescens): NI at ≦100 μM
- MIC [1]: NI at ≦100 μM
- MIC (Enterobacter aerogenes): 100 µM (≈ 221 µg/mL)
- MIC (Erwinia herbicola): 6.75 µM (≈ 14.9 µg/mL)
- MIC (Erwinia chrysanthemi): 50 µM (≈ 111 µg/mL)

SMILES: CC[C@H](C)[C@H](NC(=O)[C@@H]1CCCN1C(=O)[C@H](CCCNC(=N)N)NC(=O)[C@@H]1CCCN1C(=O)[C@H](Cc1c[nH]cn1)NC(=O)[C@H](CO)NC(=O)[C@@H](NC(=O)[C@@H]1CCCN1C(=O)[C@H](CCCNC(=N)N)NC(=O)[C@@H]1CCCN1C(=O)[C@@H](NC(=O)[C@H](Cc1ccc(O)cc1)NC(=O)[C@@H]1CCCN1C(=O)[C@H](CCCNC(=N)N)NC(=O)[C@@H]1CCCN1C(=O)[C@H](CCCCN)NC(=O)CCN)[C@@H](C)O)[C@@H](C)O)C(=O)N[C@@H](CCCNC(=N)N)C(=O)N[C@H](C(=O)O)C(C)C [Peptide 14, βAlaKPRP YTPRP TSHPR PIRV] (H-[βAla]KPRPYTPRPTSHPRPIRV-OH; N-terminus assumed)
- MIC (Serratia marcescens): NI at ≦100 μM
- MIC [1]: NI at ≦100 μM
- MIC (Enterobacter aerogenes): 100 µM (≈ 223 µg/mL)
- MIC (Erwinia herbicola): 6.75 µM (≈ 15 µg/mL)
- MIC (Erwinia chrysanthemi): 100 µM (≈ 223 µg/mL)
